Structures are written as SMILES.

This assay concerns the target Human GPR35 (Homo sapiens, UniProt Q9HC97, S294R). The assay can be described thus: Alternative Beta-Arrestin Assay (JumpIn 294R Tango U2OS cells, LiveBLAzer-FRET B/G). The assay is classed as cell-based. To be noted: Human GPR35 expressing JumpIn 294R Tango U2OS cells, 5 hours treatment. As for the experimental part: Human GPR35 expressing JumpIn (Thermo Fisher) 294R Tango U2OS cells were plated in 384-well format in clear bottom plates at a cell density of 10,000 cells/well and allowed to grow overnight. The next day, cells were treated with serially diluted test compounds for 5 hours. LiveBLAzer-FRET B/G (CCF4-AM) detection reagents were then added and cells were allowed to incubate for 2 hours before reading plates on a BioTek Cytation 5 plate reader. Zaprinast was used as a positive control for dose-response curves. In order to determine EC50 values, data w ere fit to a four-parameter dose-response curves.

Chain of Human GPR35 (Q9HC97 whole entry S294R): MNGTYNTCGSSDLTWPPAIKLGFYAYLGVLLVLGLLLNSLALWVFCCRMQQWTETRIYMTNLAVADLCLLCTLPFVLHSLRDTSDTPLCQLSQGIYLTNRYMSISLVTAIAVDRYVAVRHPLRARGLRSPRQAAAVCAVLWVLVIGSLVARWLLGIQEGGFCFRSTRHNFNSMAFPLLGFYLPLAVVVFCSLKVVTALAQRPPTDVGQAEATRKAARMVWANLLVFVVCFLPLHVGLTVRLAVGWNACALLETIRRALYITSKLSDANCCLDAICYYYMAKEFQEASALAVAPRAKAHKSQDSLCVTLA

In general, EC50 refers to the concentration that produces a half-maximal response. A low value points to higher potency in that assay. In the case of `CCOc1cc(-c2cccc(OC(C)C(=O)O)c2)ccc1-c1nc2[nH]nnc2c(=O)[nH]1` (racemic) [Compound 212, (±)-2-((3′-Ethoxy-4′-(7-oxo-6,7-dihydro-3H-[1,2,3]triazolo[4,5-d]pyrimidin-5-yl)-[1,1′-biphenyl]-3-yl)oxy)propanoic acid], the EC50 is not above 10 µM.
In the case of `CCOc1cc(-c2cccc([C@H]3C[C@@H]3C(=O)O)c2)ccc1-c1nc2[nH]nnc2c(=O)[nH]1` (racemic) [Compound 277, rac-trans-2-(3′-ethoxy-4′-(7-oxo-6,7-dihydro-3H-[1,2,3]triazolo[4,5-d]pyrimidin-5-yl)-[1,1′-biphenyl]-3-yl)cyclopropane-1-carboxylic acid] it was not above 10 µM; in that of `CCOc1cc(-c2cccc([C@@H]3C[C@@H]3C(=O)O)c2)ccc1-c1nc2[nH]nnc2c(=O)[nH]1` (racemic) [Compound 306, rac-cis-2-(3′-ethoxy-4′-(7-oxo-6,7-dihydro-3H-[1,2,3]triazolo[4,5-d]pyrimidin-5-yl)-[1,1′-biphenyl]-3-yl)cyclopropane-1-carboxylic acid], not above 10 µM; in that of `CCOc1cc(-c2cccc(/C=C(/C)C(=O)O)c2)ccc1-c1nc2[nH]nnc2c(=O)[nH]1` (single isomer, unassigned) [Compound 236, (Z)-3-(3′-ethoxy-4′-(7-oxo-6,7-dihydro-3H-[1,2,3]triazolo[4,5-d]pyrimidin-5-yl)-[1,1′-biphenyl]-3-yl)-2-methylacrylic acid], not above 10 µM.
In the case of `CCOc1cc(-c2cccc(/C=C(\C)C(=O)O)c2)ccc1-c1nc2[nH]nnc2c(=O)[nH]1` (single isomer, unassigned) [Compound 237, (E)-3-(3′-ethoxy-4′-(7-oxo-6,7-dihydro-3H-[1,2,3]triazolo[4,5-d]pyrimidin-5-yl)-[1,1′-biphenyl]-3-yl)-2-methylacrylic acid] it was not above 10 µM; in that of `CCOc1cc(-c2cccc(CC(CC)C(=O)O)c2)ccc1-c1nc2[nH]nnc2c(=O)[nH]1` (single isomer, unassigned) [Compound 240, 2-((3′-ethoxy-4′-(7-oxo-6,7-dihydro-3H-[1,2,3]triazolo[4,5-d]pyrimidin-5-yl)-[1,1′-biphenyl]-3-yl)methyl)butanoic acid], not above 10 µM; in that of `CCOc1cc(-c2cccc(CC(CC)C(=O)O)c2)ccc1-c1nc2[nH]nnc2c(=O)[nH]1` (single isomer, unassigned) [Compound 241, 2-((3′-ethoxy-4′-(7-oxo-6,7-dihydro-3H-[1,2,3]triazolo[4,5-d]pyrimidin-5-yl)-[1,1′-biphenyl]-3-yl)methyl)butanoic acid], not above 10 µM.
In the case of `CCOc1cc(-c2cccc(O[C@H](C)C(=O)O)c2)ccc1-c1nc2[nH]nnc2c(=O)[nH]1` (single isomer, unassigned) [Compound 251] it was not above 10 µM; in that of `CCOc1cc(-c2cccc(O[C@@H](C)C(=O)O)c2)ccc1-c1nc2[nH]nnc2c(=O)[nH]1` (single isomer, unassigned) [Compound 252], not above 10 µM; in that of `CCOc1cc(-c2cccc(O[C@H](CC)C(=O)O)c2)ccc1-c1nc2[nH]nnc2c(=O)[nH]1` (single isomer, unassigned) [Compound 253], not above 10 µM.
For `CCOc1cc(-c2cccc(O[C@@H](CC)C(=O)O)c2)ccc1-c1nc2[nH]nnc2c(=O)[nH]1` (single isomer, unassigned) [Compound 254], the EC50 is not above 10 µM.
Turning to `CCOc1cc(-c2cc(O)cc(O[C@H](C)C(=O)O)c2)ccc1-c1nc2[nH]nnc2c(=O)[nH]1` (single isomer, unassigned) [Compound 255], the EC50 is not above 10 µM.
In the case of `CCOc1cc(-c2cc(O)cc(O[C@@H](C)C(=O)O)c2)ccc1-c1nc2[nH]nnc2c(=O)[nH]1` (single isomer, unassigned) [Compound 256] it was not above 10 µM; in that of `CCOc1cc(-c2cc(O)cc(O[C@H](CC)C(=O)O)c2)ccc1-c1nc2[nH]nnc2c(=O)[nH]1` (single isomer, unassigned) [Compound 258], not above 10 µM; in that of `CCOc1cc(-c2cc(O)cc(O[C@@H](CC)C(=O)O)c2)ccc1-c1nc2[nH]nnc2c(=O)[nH]1` (single isomer, unassigned) [Compound 259], not above 10 µM.
Regarding `CCOc1cc(-c2cc(F)c(F)c(O[C@H](C)C(=O)O)c2)ccc1-c1nc2[nH]nnc2c(=O)[nH]1` (single isomer, unassigned) [Compound 260], the EC50 is not above 10 µM.
In the case of `CCOc1cc(-c2cc(F)c(F)c(O[C@@H](C)C(=O)O)c2)ccc1-c1nc2[nH]nnc2c(=O)[nH]1` (single isomer, unassigned) [Compound 261] it was not above 10 µM.
In the case of `CCOc1cc(-c2cc(F)cc(O[C@H](C)C(=O)O)c2)ccc1-c1nc2[nH]nnc2c(=O)[nH]1` (single isomer, unassigned) [Compound 262] it was not above 10 µM.
Under `CCOc1cc(-c2cc(F)cc(O[C@@H](C)C(=O)O)c2)ccc1-c1nc2[nH]nnc2c(=O)[nH]1` (single isomer, unassigned) [Compound 263] stands not above 10 µM.
On to `CCOc1cc(-c2cccc([C@@H]3C[C@H]3C(=O)O)c2)ccc1-c1nc2[nH]nnc2c(=O)[nH]1` (single isomer, unassigned) [Compound 278, trans-2-(3′-ethoxy-4′-(7-oxo-6,7-dihydro-3H-[1,2,3]triazolo[4,5-d]pyrimidin-5-yl)-[1,1′-biphenyl]-3-yl)cyclopropane-1-carboxylic acid], for which the EC50 was not above 10 µM.
Under `CCOc1cc(-c2cccc([C@@H]3C[C@H]3C(=O)O)c2)ccc1-c1nc2[nH]nnc2c(=O)[nH]1` (single isomer, unassigned) [Compound 279, trans-2-(3′-ethoxy-4′-(7-oxo-6,7-dihydro-3H-[1,2,3]triazolo[4,5-d]pyrimidin-5-yl)-[1,1′-biphenyl]-3-yl)cyclopropane-1-carboxylic acid] stands not above 10 µM; under `CCOc1cc(-c2cccc([C@H]3C[C@H]3C(=O)O)c2)ccc1-c1nc2[nH]nnc2c(=O)[nH]1` (single isomer, unassigned) [Compound 307, Cis-2-(3′-ethoxy-4′-(7-oxo-6,7-dihydro-3H-[1,2,3]triazolo[4,5-d]pyrimidin-5-yl)-[1,1′-biphenyl]-3-yl)cyclopropane-1-carboxylic acid], not above 10 µM.
For `CCOc1cc(-c2cccc([C@H]3C[C@H]3C(=O)O)c2)ccc1-c1nc2[nH]nnc2c(=O)[nH]1` (single isomer, unassigned) [Compound 308, cis-2-(3′-ethoxy-4′-(7-oxo-6,7-dihydro-3H-[1,2,3]triazolo[4,5-d]pyrimidin-5-yl)-[1,1′-biphenyl]-3-yl)cyclopropane-1-carboxylic acid], the EC50 was not above 10 µM.
Under `CCOc1cc(-c2cccc(CC(C)C(=O)O)c2)ccc1-c1nc2[nH]nnc2c(=O)[nH]1` (single isomer, unassigned) [Compound 311, 3-(3′-ethoxy-4′-(7-oxo-6,7-dihydro-3H-[1,2,3]triazolo[4,5-d]pyrimidin-5-yl)-[1,1′-biphenyl]-3-yl)-2-methylpropanoic acid] stands not above 10 µM; under `CCOc1cc(-c2cccc(CC(C)C(=O)O)c2)ccc1-c1nc2[nH]nnc2c(=O)[nH]1` (single isomer, unassigned) [Compound 312, 3-(3′-ethoxy-4′-(7-oxo-6,7-dihydro-3H-[1,2,3]triazolo[4,5-d]pyrimidin-5-yl)-[1,1′-biphenyl]-3-yl)-2-methylpropanoic acid], not above 10 µM; under `CCOc1cc(-c2ccc(OC(C)C)c(CC(C)C(=O)O)c2)ccc1-c1nc2[nH]nnc2c(=O)[nH]1` (single isomer, unassigned) [Compound 313, 3-(3′-ethoxy-4-isopropoxy-4′-(7-oxo-6,7-dihydro-3H-[1,2,3]triazolo[4,5-d]pyrimidin-5-yl)-[1,1′-biphenyl]-3-yl)-2-methylpropanoic acid], not above 10 µM.
In the case of `CCOc1cc(-c2ccc(OC(C)C)c(CC(C)C(=O)O)c2)ccc1-c1nc2[nH]nnc2c(=O)[nH]1` (single isomer, unassigned) [Compound 314, 3-(3′-ethoxy-4-isopropoxy-4′-(7-oxo-6,7-dihydro-3H-[1,2,3]triazolo[4,5-d]pyrimidin-5-yl)-[1,1′-biphenyl]-3-yl)-2-methylpropanoic acid] it was not above 10 µM; in that of `CCOC(=O)COc1cccc(-c2ccc(-c3nc4[nH]nnc4c(=O)[nH]3)c(OCC)c2)c1` [Compound 120, Ethyl 2-((3′-ethoxy-4′-(7-oxo-6,7-dihydro-3H-[1,2,3]triazolo[4,5-d]pyrimidin-5-yl)-[1,1′-biphenyl]-3-yl)oxy)acetate], not above 10 µM.
In the case of `O=c1[nH]c(-c2ccc(-c3nnn[nH]3)cc2O)nc2[nH]nnc12` [Compound 147, 5-(2-hydroxy-4-(1H-tetrazol-5-yl)phenyl)-3,6-dihydro-7H-[1,2,3]triazolo[4,5-d]pyrimidin-7-one] it was not above 10 µM; in that of `CCOc1cc(-c2ccc(NC(C)=O)c(C(=O)O)c2)ccc1-c1nc2[nH]nnc2c(=O)[nH]1` [Compound 184, 4-acetamido-3′-ethoxy-4′-(7-oxo-6,7-dihydro-3H-[1,2,3]triazolo[4,5-d]pyrimidin-5-yl)-[1,1′-biphenyl]-3-carboxylic acid], not above 10 µM; in that of `CCOc1cc(-c2cc(C)cc(C(=O)O)c2)ccc1-c1nc2[nH]nnc2c(=O)[nH]1` [Compound 185, 3′-ethoxy-5-methyl-4′-(7-oxo-6,7-dihydro-3H-[1,2,3]triazolo[4,5-d]pyrimidin-5-yl)-[1,1′-biphenyl]-3-carboxylic acid], not above 10 µM.
`CCOc1cc(-c2cccc(C(=O)O)c2F)ccc1-c1nc2[nH]nnc2c(=O)[nH]1` [Compound 186, 3′-ethoxy-2-fluoro-4′-(7-oxo-6,7-dihydro-3H-[1,2,3]triazolo[4,5-d]pyrimidin-5-yl)-[1,1′-biphenyl]-3-carboxylic acid] came in with an EC50 not above 10 µM.

For the origin of these results see patent US11053251B2, “GPR35 modulators” (Prometheus Biosciences, Inc., priority 2019, dated 2021).
